From patent US20060122150A1, “Pharmaceutical composition and method for treating a joint-capsule arthropathy” (priority 2004, published 2006)

Legend:
[1] = target: COX-1 (Homo sapiens, UniProt P23219); experiment: In vitro efficacy: inhibitor of COX-1; format: biochemical
[2] = system: LTB4; experiment: In vitro efficacy: inhibitor of LTB4; format: biochemical
[3] = system: TXB2; experiment: In vitro efficacy: inhibitor of TXB2; format: biochemical
[4] = target: T1, COX-2 (Homo sapiens, UniProt P35354); experiment: In vitro efficacy: inhibitor of COX-2; format: biochemical
T1 sequence (P35354 18-604): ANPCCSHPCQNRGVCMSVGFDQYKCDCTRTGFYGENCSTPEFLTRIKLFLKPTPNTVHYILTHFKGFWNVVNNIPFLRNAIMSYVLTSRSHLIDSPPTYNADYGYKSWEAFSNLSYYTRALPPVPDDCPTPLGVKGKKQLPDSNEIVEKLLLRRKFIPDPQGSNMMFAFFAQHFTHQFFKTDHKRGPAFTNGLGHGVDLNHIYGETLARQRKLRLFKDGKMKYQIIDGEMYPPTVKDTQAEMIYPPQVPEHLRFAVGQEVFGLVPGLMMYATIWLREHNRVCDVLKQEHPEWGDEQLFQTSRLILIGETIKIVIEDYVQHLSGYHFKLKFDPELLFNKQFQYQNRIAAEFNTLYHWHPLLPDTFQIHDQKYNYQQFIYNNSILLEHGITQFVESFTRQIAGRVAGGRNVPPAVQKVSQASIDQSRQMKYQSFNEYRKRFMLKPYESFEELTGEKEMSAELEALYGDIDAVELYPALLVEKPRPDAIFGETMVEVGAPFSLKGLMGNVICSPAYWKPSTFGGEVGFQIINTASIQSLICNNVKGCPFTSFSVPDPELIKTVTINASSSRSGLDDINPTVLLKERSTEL

[5] = target: T2, 5LO-1 (Homo sapiens, UniProt P09917); experiment: In vitro efficacy: inhibitor of 5LO-1; format: biochemical
T2 sequence (P09917 1-674): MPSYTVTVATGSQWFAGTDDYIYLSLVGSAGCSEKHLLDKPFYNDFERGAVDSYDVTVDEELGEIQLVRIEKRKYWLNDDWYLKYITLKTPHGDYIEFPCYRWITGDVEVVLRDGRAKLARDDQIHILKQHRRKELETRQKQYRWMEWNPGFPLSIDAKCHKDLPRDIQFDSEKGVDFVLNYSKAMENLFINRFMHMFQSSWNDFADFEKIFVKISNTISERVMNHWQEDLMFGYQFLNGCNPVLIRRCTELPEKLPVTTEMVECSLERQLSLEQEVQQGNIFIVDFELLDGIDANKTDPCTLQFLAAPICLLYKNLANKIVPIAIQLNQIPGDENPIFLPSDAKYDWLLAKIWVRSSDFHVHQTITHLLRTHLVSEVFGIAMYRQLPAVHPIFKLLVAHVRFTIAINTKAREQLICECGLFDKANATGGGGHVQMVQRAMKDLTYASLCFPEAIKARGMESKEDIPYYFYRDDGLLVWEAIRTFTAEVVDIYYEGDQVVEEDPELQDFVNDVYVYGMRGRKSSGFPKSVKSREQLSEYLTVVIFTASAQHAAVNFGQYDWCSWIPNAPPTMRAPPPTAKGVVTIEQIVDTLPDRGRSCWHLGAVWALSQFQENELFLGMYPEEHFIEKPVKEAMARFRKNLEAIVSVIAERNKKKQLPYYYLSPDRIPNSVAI

[6] = system: Rabbit Anterior Cruciate Ligament Transection (ACLT) Model; experiment: Rabbit ACLT osteoarthritis model, NSAID dispersed in HA (Example 4); format: in vivo, New Zealand White Rabbits; conditions: intra-articular 160 μL once per week for 5 weeks
Description: Osteoarthritis is a degenerative disease that degrades cartilage, resulting in pain, restriction of motion and deformity. In the ACLT model, the appearance of OA can be seen at 6 weeks and is characterized by erosion of cartilage on the trochlear grove and mild to serious cartilage erosion on the femoral condyle. The last symptoms to arise are on the tibial plateau. At 6 weeks, there is some damage visible on the tibial plateau, but the damage may not be great given the length of the study. […] While osteophyte formation is a factor in the analysis, several parameters are observed, wherein each parameter alone is not sufficient to draw a conclusion. Therefore, the composite score provides a more meaningful result for a particular agent tested.
The ACLT model was used to evaluate the ability of a NSAID agent in a pharmaceutical formulation administered directly into the intra-articular capsule of the knee to reduce the incidence of osteoarthritic changes. The NSAIDs formulations prepared in Example 2 were used and injected 6 weeks after animal preparation. A commercially available form of purified HA was used as the vehicle control. The animals (n=7 per group) were dosed (160 μL per injection) once per week for 5 weeks.
Female New Zealand White Rabbits (n=84, Milibrook Breeding Labs, SPF) used in the study underwent ACLT on the right knee.
One week after the last injection (total 12 weeks from time of ACLT), animals were euthanized and gross observations were made on the knee joints. Histological sectioning and staining were performed on the condyles.
The joints were analyzed for disease state in the trochlear groove, the femoral condyles and the tibial plateau. Pathological assessments were performed on the sectioned tissue. Condylar structure, cellularity, presence of GAG (glycosaminoglycans) and presence of cartilage were evaluated.
On the anterior surface of the femur (trochlear groove), the number of osteophytes, the size (diameter) of osteophytes, the presence of trochlear groove thickening and the erosion of cartilage were evaluated grossly.
On the femoral condyles, the erosion of cartilage (% surface area) (both medial and lateral condyle), the erosion of cartilage (depth) and the presence of clefts were evaluated grossly.
On the tibial plateau, observations on the thickening, presence of clefts and erosion were made.
Each parameter was given a score. The combination of all parameters gave a Total Score. A higher score indicates more damage to the joint. The data for un-operated joints (no surgery) has been included as a baseline for a normal joint.

Sequence of COX-1 (P23219 24-599): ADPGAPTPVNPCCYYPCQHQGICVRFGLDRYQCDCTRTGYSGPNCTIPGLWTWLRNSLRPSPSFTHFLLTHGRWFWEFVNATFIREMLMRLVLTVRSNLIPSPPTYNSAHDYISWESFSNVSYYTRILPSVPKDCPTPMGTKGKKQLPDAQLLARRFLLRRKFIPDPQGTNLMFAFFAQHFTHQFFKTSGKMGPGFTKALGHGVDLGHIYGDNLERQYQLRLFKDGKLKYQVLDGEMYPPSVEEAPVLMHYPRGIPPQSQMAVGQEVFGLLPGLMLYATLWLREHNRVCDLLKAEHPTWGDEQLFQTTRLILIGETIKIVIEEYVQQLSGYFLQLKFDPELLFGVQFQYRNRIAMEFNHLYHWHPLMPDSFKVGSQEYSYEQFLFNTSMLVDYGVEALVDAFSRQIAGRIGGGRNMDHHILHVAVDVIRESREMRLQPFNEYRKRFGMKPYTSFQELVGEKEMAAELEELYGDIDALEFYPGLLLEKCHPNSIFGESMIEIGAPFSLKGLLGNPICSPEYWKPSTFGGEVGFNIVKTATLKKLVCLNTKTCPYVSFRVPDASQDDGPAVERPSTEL

| IC50 [1] [µM] | IC50 [4] [µM] | IC50 [5] [µM] | SMILES | All Cartilage Effects composite score ([6]; high dose) | All Trochlear Groove Effects composite score ([6]; high dose) | Total Score (composite of all scoring criteria) ([6]; high dose) | Trochlear Groove (Erosion of Cartilage) grade ([6]; high dose) | All Cartilage Effects composite score ([6]; mid dose) | Lateral Femoral Condyle (% Surface Area Erosion) score ([6]; mid dose) | Medial Femoral Condyle (% Surface Area Erosion) score ([6]; low dose) | All Tibial Plateau Effects composite score ([6]; mid dose) | Medial Femoral Condyle (% Surface Area Erosion) score ([6]; mid dose) | Total Score (composite of all scoring criteria) ([6]; mid dose) | also measured |
| --- | --- | --- | --- | --- | --- | --- | --- | --- | --- | --- | --- | --- | --- | --- |
| 0.97 | 2 | 0.17 | COc1ccc(-n2nc(CCC(=O)N(C)O)cc2-c2ccc(Cl)cc2)cc1 [Tepoxalin] | lower mean scores than the No Injection treated group | lower mean scores than Vehicle and No Injection treated groups | numerically less average scores than the No Injection treated group | numerically lower than the Vehicle control and No Injection treated groups | lower mean scores than the No Injection treated group | average numerical scores less than Vehicle and No Injection treated groups |  |  |  |  | IC50 [2]: 0.04 µM; IC50 [3]: 0.002 µM; Medial Femoral Condyle (% Surface Area Erosion) score ([6]; all dose groups): average numerical scores less than Vehicle and No Injection treated groups; Total Score (composite of all scoring criteria) ([6]; low dose): numerically less average scores than the No Injection treated group |
| 3 | 0.05 | 0.03 | Cc1ccc(C(=O)c2ccc(CC(=O)O)n2C)cc1 [Tolmetin] |  | lower mean scores than Vehicle and No Injection treated groups |  | numerically lower than the Vehicle control and No Injection treated groups | lower mean scores than the No Injection treated group | average numerical scores less than Vehicle and No Injection treated groups | average numerical scores less than Vehicle and No Injection treated groups | lower average scores than the No Injection treated group | average numerical scores less than Vehicle and No Injection treated groups | numerically less average scores than the No Injection treated group | Femoral Condyle (Depth of Erosion) score ([6]; high dose): the same average score as the No Injection group |
| 0.06 | 1 | 3 | CC(C(=O)O)c1ccc(C(=O)c2cccs2)cc1 (stereo not drawn) [Suprofen] | lower mean scores than the No Injection treated group |  | numerically less average scores than the No Injection treated group |  | lower mean scores than the No Injection treated group | average numerical scores less than Vehicle and No Injection treated groups | the same average score as No Injection but scored better than Vehicle | lower average scores than the No Injection treated group | average numerical scores less than Vehicle and No Injection treated groups | numerically less average scores than the No Injection treated group | All Trochlear Groove Effects composite score ([6]; all dose groups): lower mean scores than Vehicle and No Injection treated groups; Trochlear Groove (Erosion of Cartilage) grade ([6]; all dose levels): numerically lower than the Vehicle control and No Injection treated groups; Lateral Femoral Condyle (% Surface Area Erosion) score ([6]; high dose): average numerical scores less than Vehicle and No Injection treated groups |
